# Literature values in PubChem BioAssay AID1259409 (Chemical Carcinogenesis Research Information System (CCRIS), 2018).
# Values joined by “and” are separate entries in the source; they are usually repeats but may differ in a detail not shown here. Equal entries are not always repeated.
# Tested on: rodent chemically induced tumor inhibition, incidence and multiplicity
# Test: CCRIS tumor inhibitor studies
# Conditions: Route [Inhibitor]: ORAL
smiles,measurement,setting,value
NC(=O)c1cccnc1,"tumour outcome (control, treated, inhibition, significance)","Carcinogen: 3'-METHYL-4-DIMETHYLAMINOAZOBENZENE, 55-80-1, Dose [Inhibitor]: 0.29% IN DIET DAILY FOR 4 WK STARTING 4 WK AFTER THE START OF CARCINOGEN TREATMENT (STUDY DURATION: 20 WK), Species: RAT, Target Tissue: Type of Lesion: LIVER: TUMOR, Dose [Carcinogen]: 0.064% IN DIET DAILY FOR 4 WK THEN A 4 WK CARCINOGEN-FREE PERIOD FOLLOWED BY 0.048% FOR AN ADDITIONAL 4 WK, Promoter: NONE USED","4/10 (40%), 10/11 (91%), -128%, not calculated"
same,"tumour outcome (control, treated, inhibition, significance)","Carcinogen: 3'-METHYL-4-DIMETHYLAMINOAZOBENZENE, 55-80-1, Dose [Inhibitor]: 0.29% IN DIET DAILY FOR 4 WK STARTING AFTER COMPLETION OF CARCINOGEN TREATMENT (STUDY DURATION: 20 WK), Species: RAT, Target Tissue: Type of Lesion: LIVER: TUMOR, Dose [Carcinogen]: 0.064% IN DIET DAILY FOR 4 WK, Promoter: NONE USED","7/15 (47%), 0/17 (0%), 100%, not calculated"
same,"tumour outcome (control, treated, inhibition, significance)","Carcinogen: 3'-METHYL-4-DIMETHYLAMINOAZOBENZENE, 55-80-1, Dose [Inhibitor]: 0.29% IN DIET DAILY FOR 4 WK STARTING AFTER COMPLETION OF THE FIRST 4 WK OF CARCINOGEN TREATMENT (STUDY DURATION: 20 WK), Species: RAT, Target Tissue: Type of Lesion: LIVER: TUMOR, Dose [Carcinogen]: 0.064% IN DIET DAILY FOR 4 WK BEFORE AND ANOTHER 4 WK AFTER AGENT TREATMENT, Promoter: NONE USED","7/15 (47%), 9/14 (64%), -36%, not calculated and 7/9 (78%), 6/9 (67%), 14%, not calculated"
same,"tumour outcome (control, treated, inhibition, significance)","Carcinogen: 7,12-DIMETHYLBENZ[A]ANTHRACENE, 57-97-6, Dose [Inhibitor]: 0.2% IN DRINKING WATER DAILY STARTING 4 WK BEFORE CARCINOGEN TREATMENT AND CONTINUING FOR DURATION OF THE STUDY (STUDY D, Species: MOUSE, Strain/Sex: 101/MALE, FEMALE, Target Tissue: Type of Lesion: SKIN: PAPILLOMA, Dose [Carcinogen]: 225 UG IN 0.15 ML ACETONE ONCE, Promoter: CROTON OIL, 8001-28-3","17/19 (89%), 17/19 (89%), 0%, not calculated"
same,"tumour outcome (control, treated, inhibition, significance)","Carcinogen: N-NITROSOBIS(2-OXOPROPYL)AMINE, 60599-38-4, Dose [Inhibitor]: 0, 0.2% IN DRINKING WATER FOR 49 WK BEGINNING POST CARCINOGEN TREATMENT (STUDY DURATION: 52 WK), Species: HAMSTER, Strain/Sex: SYRIAN/FEMALE, Target Tissue: Type of Lesion: PANCREAS: ADENOCARCINOMA, Dose [Carcinogen]: 10 MG/KG 1/WK FOR 3 WK, Promoter: NONE USED","18/30 (60%), 18/29 (62%), -3%, not significant"
same,"tumour outcome (control, treated, inhibition, significance)","Carcinogen: N-NITROSOBIS(2-OXOPROPYL)AMINE, 60599-38-4, Dose [Inhibitor]: 0, 0.2% IN DRINKING WATER FOR 49 WK POST CARCINOGEN TREATMENT (STUDY DURATION: 52 WK), Species: HAMSTER, Strain/Sex: SYRIAN GOLDEN/FEMALE, Target Tissue: Type of Lesion: KIDNEY: NEPHROBLASTOMA, Dose [Carcinogen]: 10 MG/KG BW 1/WK FOR FIRST 3 WK OF STUDY DURATION, Promoter: NONE","2/30 (7%), 0/29 (0%), 100%, not significant"
same,outcome,"Carcinogen: N-NITROSOBIS(2-OXOPROPYL)AMINE, 60599-38-4, Dose [Inhibitor]: 0, 0.2% IN DRINKING WATER FOR 49 WK POST CARCINOGEN TREATMENT (STUDY DURATION: 52 WK), Species: HAMSTER, Strain/Sex: SYRIAN GOLDEN/FEMALE, Target Tissue: Type of Lesion: KIDNEY: RENAL CELL ADENOMA, Dose [Carcinogen]: 10 MG/KG BW 1/WK FOR FIRST 3 WK OF STUDY DURATION, Promoter: NONE","0/30 (0%), 1/29 (3%),-%, not significant"
same,"tumour outcome (control, treated, inhibition, significance)","Carcinogen: N-NITROSOBIS(2-OXOPROPYL)AMINE, 60599-38-4, Dose [Inhibitor]: 0, 0.2% IN DRINKING WATER FOR 49 WK POST CARCINOGEN TREATMENT (STUDY DURATION: 52 WK), Species: HAMSTER, Strain/Sex: SYRIAN GOLDEN/FEMALE, Target Tissue: Type of Lesion: KIDNEY: RENAL CELL CARCINOMA, Dose [Carcinogen]: 10 MG/KG BW 1/WK FOR FIRST 3 WK OF STUDY DURATION, Promoter: NONE","1/30 (3%), 1/29 (3%), 0%, not significant"
same,"tumour outcome (control, treated, inhibition, significance)","Carcinogen: N-NITROSOBIS(2-OXOPROPYL)AMINE, 60599-38-4, Dose [Inhibitor]: 0, 0.2% IN DRINKING WATER FOR 49 WK POST CARCINOGEN TREATMENT (STUDY DURATION: 52 WK), Species: HAMSTER, Strain/Sex: SYRIAN GOLDEN/FEMALE, Target Tissue: Type of Lesion: LIVER: CHOLANGIOCELLULAR ADENOMA, Dose [Carcinogen]: 10 MG/KG BW 1/WK FOR FIRST 3 WK OF STUDY DURATION, Promoter: NONE","1/30 (3%), 2/29 (7%), -133%, not significant"
same,outcome,"Carcinogen: N-NITROSOBIS(2-OXOPROPYL)AMINE, 60599-38-4, Dose [Inhibitor]: 0, 0.2% IN DRINKING WATER FOR 49 WK POST CARCINOGEN TREATMENT (STUDY DURATION: 52 WK), Species: HAMSTER, Strain/Sex: SYRIAN GOLDEN/FEMALE, Target Tissue: Type of Lesion: LIVER: CHOLANGIOCELLULAR CARCINOMA, Dose [Carcinogen]: 10 MG/KG BW 1/WK FOR FIRST 3 WK OF STUDY DURATION, Promoter: NONE","0/30 (0%), 5/29 (17%), -%, p<0.05"
same,outcome,"Carcinogen: N-NITROSOBIS(2-OXOPROPYL)AMINE, 60599-38-4, Dose [Inhibitor]: 0, 0.2% IN DRINKING WATER FOR 49 WK POST CARCINOGEN TREATMENT (STUDY DURATION: 52 WK), Species: HAMSTER, Strain/Sex: SYRIAN GOLDEN/FEMALE, Target Tissue: Type of Lesion: LIVER: CYSTADENOMA, Dose [Carcinogen]: 10 MG/KG BW 1/WK FOR FIRST 3 WK OF STUDY DURATION, Promoter: NONE","0/30 (0%), 0/29 (0%), 0%, not significant"
same,"tumour outcome (control, treated, inhibition, significance)","Carcinogen: N-NITROSOBIS(2-OXOPROPYL)AMINE, 60599-38-4, Dose [Inhibitor]: 0, 0.2% IN DRINKING WATER FOR 49 WK POST CARCINOGEN TREATMENT (STUDY DURATION: 52 WK), Species: HAMSTER, Strain/Sex: SYRIAN GOLDEN/FEMALE, Target Tissue: Type of Lesion: LIVER: HEPATOCELLULAR ADENOMA, Dose [Carcinogen]: 10 MG/KG BW 1/WK FOR FIRST 3 WK OF STUDY DURATION, Promoter: NONE","2/30 (7%), 4/29 (14%), -100%, not significant"
same,"tumour outcome (control, treated, inhibition, significance)","Carcinogen: N-NITROSOBIS(2-OXOPROPYL)AMINE, 60599-38-4, Dose [Inhibitor]: 0, 0.2% IN DRINKING WATER FOR 49 WK POST CARCINOGEN TREATMENT (STUDY DURATION: 52 WK), Species: HAMSTER, Strain/Sex: SYRIAN GOLDEN/FEMALE, Target Tissue: Type of Lesion: LIVER: HEPATOCELLULAR CARCINOMA, Dose [Carcinogen]: 10 MG/KG BW 1/WK FOR FIRST 3 WK OF STUDY DURATION, Promoter: NONE","2/30 (7%), 1/29 (3%), 57%, not significant"
same,"tumour outcome (control, treated, inhibition, significance)","Carcinogen: N-NITROSOBIS(2-OXOPROPYL)AMINE, 60599-38-4, Dose [Inhibitor]: 0, 0.2% IN DRINKING WATER FOR 49 WK POST CARCINOGEN TREATMENT (STUDY DURATION: 52 WK), Species: HAMSTER, Strain/Sex: SYRIAN GOLDEN/FEMALE, Target Tissue: Type of Lesion: LUNG: ADENOCARCINOMA, Dose [Carcinogen]: 10 MG/KG BW 1/WK FOR FIRST 3 WK OF STUDY DURATION, Promoter: NONE","11/30 (37%), 8/29 (28%), 24%, not significant"
same,"tumour outcome (control, treated, inhibition, significance)","Carcinogen: N-NITROSOBIS(2-OXOPROPYL)AMINE, 60599-38-4, Dose [Inhibitor]: 0, 0.2% IN DRINKING WATER FOR 49 WK POST CARCINOGEN TREATMENT (STUDY DURATION: 52 WK), Species: HAMSTER, Strain/Sex: SYRIAN GOLDEN/FEMALE, Target Tissue: Type of Lesion: LUNG: ADENOMA, Dose [Carcinogen]: 10 MG/KG BW 1/WK FOR FIRST 3 WK OF STUDY DURATION, Promoter: NONE","15/30 (50%), 18/29 (62%), -24%, not significant"
same,"tumour outcome (control, treated, inhibition, significance)","Carcinogen: N-NITROSOBIS(2-OXOPROPYL)AMINE, 60599-38-4, Dose [Inhibitor]: 0, 0.2% IN DRINKING WATER FOR 49 WK POST CARCINOGEN TREATMENT (STUDY DURATION: 52 WK), Species: HAMSTER, Strain/Sex: SYRIAN GOLDEN/FEMALE, Target Tissue: Type of Lesion: LUNG: SQUAMOUS CELL CARCINOMA, Dose [Carcinogen]: 10 MG/KG BW 1/WK FOR FIRST 3 WK OF STUDY DURATION, Promoter: NONE","2/30 (7%), 0/29 (0%), 100%, not significant"
same,"tumour outcome (control, treated, inhibition, significance)","Carcinogen: N-NITROSOBIS(2-OXOPROPYL)AMINE, 60599-38-4, Dose [Inhibitor]: 0, 0.2% IN DRINKING WATER FOR 49 WK POST CARCINOGEN TREATMENT (STUDY DURATION: 52 WK), Species: HAMSTER, Strain/Sex: SYRIAN GOLDEN/FEMALE, Target Tissue: Type of Lesion: PANCREAS (DUCTAL): ADENOCARCINOMA, Dose [Carcinogen]: 10 MG/KG BW 1/WK FOR FIRST 3 WK OF STUDY DURATION, Promoter: NONE","18/30 (60%), 18/29 (62%), -3%, not significant"
same,"tumour outcome (control, treated, inhibition, significance)","Carcinogen: N-NITROSOBIS(2-OXOPROPYL)AMINE, 60599-38-4, Dose [Inhibitor]: 0, 0.2% IN DRINKING WATER FOR 49 WK POST CARCINOGEN TREATMENT (STUDY DURATION: 52 WK), Species: HAMSTER, Strain/Sex: SYRIAN GOLDEN/FEMALE, Target Tissue: Type of Lesion: THYROID: ADENOMA, Dose [Carcinogen]: 10 MG/KG BW 1/WK FOR FIRST 3 WK OF STUDY DURATION, Promoter: NONE","1/30 (3%), 0/29 (0%), 100%, not significant"
